Test results published in ChEMBL document CHEMBL1201862, “PubChem BioAssay data set” (2004).
Activity calls are given as the source filed them.

Key:
[1] = target: Glyceraldehyde-3-phosphate dehydrogenase (Homo sapiens, UniProt P04406)
[2] = target: Alkaline phosphatase, placental type (Homo sapiens, UniProt P05187); assay: PLAP enzyme inhibitors, confirmation, biochemical, luminescence (AID 1512); type: functional
[3] = target: T1, Alkaline phosphatase, tissue-nonspecific isozyme (Homo sapiens, UniProt P05186); assay: human TNAP enzyme inhibitors, SAR follow-up, biochemical, luminescent, dose response (AID 1056)
T1 sequence (P05186 whole entry): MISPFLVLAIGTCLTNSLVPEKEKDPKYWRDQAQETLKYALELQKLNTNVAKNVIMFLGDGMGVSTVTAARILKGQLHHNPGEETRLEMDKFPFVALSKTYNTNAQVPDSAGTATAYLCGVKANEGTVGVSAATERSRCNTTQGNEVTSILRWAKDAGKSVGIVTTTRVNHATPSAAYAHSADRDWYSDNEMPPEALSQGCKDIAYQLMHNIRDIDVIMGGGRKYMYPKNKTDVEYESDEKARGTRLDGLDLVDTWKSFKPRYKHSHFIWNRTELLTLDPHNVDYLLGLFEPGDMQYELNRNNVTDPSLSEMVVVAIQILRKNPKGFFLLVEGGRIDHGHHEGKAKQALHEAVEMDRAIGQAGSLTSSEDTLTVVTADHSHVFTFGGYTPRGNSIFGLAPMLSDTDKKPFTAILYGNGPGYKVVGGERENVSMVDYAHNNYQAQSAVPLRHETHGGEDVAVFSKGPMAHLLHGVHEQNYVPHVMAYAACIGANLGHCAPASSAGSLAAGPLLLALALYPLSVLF

cells = type: functional
[4] = Vero E6 cell cytotoxicity, dose response, cytotoxicity control for non-replicating M. tuberculosis project, secondary assay (AID 492998); type: functional, VeroE6; settings: Vero C1008
[5] = THP-1 cell cytotoxicity, dose response, cytotoxicity control for non-replicating M. tuberculosis project (AID 489025); type: functional
SUMO-activating enzyme [6] = target: T2, SUMO-activating enzyme (Homo sapiens, UniProt Q9UBT2); assay: SUMOylation inhibitor hit validation, confirmation, SUMOylation inhibitor project, biochemical, AlphaScreen (AID 2018); type: functional
SUMO-activating enzyme [7] = target: T2, SUMO-activating enzyme; assay: inhibitors of in vitro SUMOylation cascade, primary screen, biochemical, HTRF, uHTS (AID 2006); type: protein-complex assay
[8] = target: T3, C-C chemokine receptor type 6 (Homo sapiens, UniProt P51684); assay: CCR6 receptor antagonists, dose response, cell-based, luminescent beta-arrestin readout (AID 504728); type: functional
T3 sequence (P51684 whole entry): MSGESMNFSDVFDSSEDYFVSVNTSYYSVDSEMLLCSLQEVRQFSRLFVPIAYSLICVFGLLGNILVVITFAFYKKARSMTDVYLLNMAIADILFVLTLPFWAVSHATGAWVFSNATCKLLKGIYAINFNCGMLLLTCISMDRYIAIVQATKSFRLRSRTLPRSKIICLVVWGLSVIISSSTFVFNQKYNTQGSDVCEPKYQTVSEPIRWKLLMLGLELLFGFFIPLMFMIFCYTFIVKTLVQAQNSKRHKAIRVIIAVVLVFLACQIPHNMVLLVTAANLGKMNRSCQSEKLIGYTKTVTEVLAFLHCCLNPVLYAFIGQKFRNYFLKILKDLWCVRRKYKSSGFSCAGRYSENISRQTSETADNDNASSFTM

Beta-galactosidase = Beta-galactosidase (Escherichia coli, UniProt Q8VNN2); assay: beta-galactosidase enzyme inhibitors and activators, dose response, artefact control for CCR6 antagonist project, biochemical, E. coli enzyme, set 3 (AID 504712); type: functional
Troponin, cardiac muscle = Troponin, cardiac muscle (Homo sapiens, UniProt P19429+P45379+P63316); assay: Fluorescence-based biochemical high throughput dose response assay for activators of the calcium sensitivity of cardiac Regulated Thin Filaments (RTF). [Related pubchem assays (depositor defined):AID493008, AID493018, AID504382, AID504383]; type: protein-complex assay
Cytochrome P450 3A4 = Cytochrome P450 3A4 (Homo sapiens, UniProt P08684); settings: Potency;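 further: confirmatory qHTS run detecting inhibitors and substrates of CYP3A4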
[9] = target: E3 ubiquitin-protein ligase Mdm2/Protein Mdm4 (Homo sapiens, UniProt O15151+Q00987); assay: Mdm2-MdmX interaction inhibitors, dose response, luminescence detection (AID 504593); type: functional
[10] = target: Voltage-dependent T-type calcium channel subunit alpha-1H (Homo sapiens, UniProt O95180); assay: Cav3.2 T-type channel inhibitors, synthesized analogs, SAR follow-up, cell-based, synthetic library set 2, HEK293 HH8, Fluo-4 (AID 493023); type: functional

T2 sequence (Q9UBE0 whole entry): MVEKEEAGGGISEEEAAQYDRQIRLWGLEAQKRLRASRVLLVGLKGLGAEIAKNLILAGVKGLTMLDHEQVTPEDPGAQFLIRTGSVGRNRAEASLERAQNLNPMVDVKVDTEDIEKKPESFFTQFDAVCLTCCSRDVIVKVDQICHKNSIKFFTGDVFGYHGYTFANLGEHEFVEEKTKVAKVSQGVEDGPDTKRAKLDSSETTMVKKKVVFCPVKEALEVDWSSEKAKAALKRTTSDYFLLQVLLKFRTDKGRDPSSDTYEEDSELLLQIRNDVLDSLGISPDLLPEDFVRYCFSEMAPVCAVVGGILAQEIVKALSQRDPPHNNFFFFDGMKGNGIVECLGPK
T2 sequence (Q9UBT2 whole entry): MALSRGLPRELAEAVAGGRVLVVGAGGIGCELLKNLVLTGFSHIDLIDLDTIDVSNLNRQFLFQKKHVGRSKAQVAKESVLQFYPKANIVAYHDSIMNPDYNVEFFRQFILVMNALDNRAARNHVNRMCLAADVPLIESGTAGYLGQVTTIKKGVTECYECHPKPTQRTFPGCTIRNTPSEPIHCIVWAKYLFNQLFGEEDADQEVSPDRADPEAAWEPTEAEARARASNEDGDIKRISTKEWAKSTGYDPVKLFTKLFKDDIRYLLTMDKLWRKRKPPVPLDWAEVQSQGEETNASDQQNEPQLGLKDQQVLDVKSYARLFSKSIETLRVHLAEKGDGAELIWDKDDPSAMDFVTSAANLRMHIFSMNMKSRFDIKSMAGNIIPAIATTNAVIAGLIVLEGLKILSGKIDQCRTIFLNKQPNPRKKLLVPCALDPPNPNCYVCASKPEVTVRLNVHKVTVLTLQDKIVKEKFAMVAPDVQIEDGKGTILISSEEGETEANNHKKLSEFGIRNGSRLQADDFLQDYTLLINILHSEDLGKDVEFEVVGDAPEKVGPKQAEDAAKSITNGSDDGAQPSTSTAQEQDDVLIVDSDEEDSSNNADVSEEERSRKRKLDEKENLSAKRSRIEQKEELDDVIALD
Chain of Beta-galactosidase (Q8VNN2 whole entry): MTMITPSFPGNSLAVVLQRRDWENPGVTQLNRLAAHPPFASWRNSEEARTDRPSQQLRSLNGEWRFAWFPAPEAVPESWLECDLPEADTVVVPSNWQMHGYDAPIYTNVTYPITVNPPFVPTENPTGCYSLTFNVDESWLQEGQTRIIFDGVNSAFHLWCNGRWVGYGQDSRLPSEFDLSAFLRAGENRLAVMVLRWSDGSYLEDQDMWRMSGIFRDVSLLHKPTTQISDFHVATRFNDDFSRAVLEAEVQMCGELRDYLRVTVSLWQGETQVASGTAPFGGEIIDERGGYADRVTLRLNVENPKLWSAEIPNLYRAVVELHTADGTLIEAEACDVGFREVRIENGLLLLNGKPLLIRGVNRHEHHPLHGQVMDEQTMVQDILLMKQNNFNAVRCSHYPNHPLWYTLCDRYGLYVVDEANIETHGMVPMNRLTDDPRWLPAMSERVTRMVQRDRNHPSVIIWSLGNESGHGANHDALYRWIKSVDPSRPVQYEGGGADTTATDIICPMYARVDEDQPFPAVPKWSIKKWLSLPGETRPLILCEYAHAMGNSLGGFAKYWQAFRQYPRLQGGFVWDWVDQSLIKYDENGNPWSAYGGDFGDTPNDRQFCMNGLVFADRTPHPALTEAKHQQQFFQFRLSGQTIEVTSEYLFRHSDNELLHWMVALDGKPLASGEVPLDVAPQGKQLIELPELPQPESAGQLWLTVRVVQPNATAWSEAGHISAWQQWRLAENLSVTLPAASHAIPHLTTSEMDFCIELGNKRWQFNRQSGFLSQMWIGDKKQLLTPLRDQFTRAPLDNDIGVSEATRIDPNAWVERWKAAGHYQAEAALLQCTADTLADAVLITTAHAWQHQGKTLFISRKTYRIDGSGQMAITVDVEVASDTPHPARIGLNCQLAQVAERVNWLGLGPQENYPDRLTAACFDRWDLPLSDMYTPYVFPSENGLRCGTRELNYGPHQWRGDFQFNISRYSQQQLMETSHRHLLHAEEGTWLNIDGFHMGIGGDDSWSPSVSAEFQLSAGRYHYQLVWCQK
Chain of Alkaline phosphatase, placental type (P05187 whole entry): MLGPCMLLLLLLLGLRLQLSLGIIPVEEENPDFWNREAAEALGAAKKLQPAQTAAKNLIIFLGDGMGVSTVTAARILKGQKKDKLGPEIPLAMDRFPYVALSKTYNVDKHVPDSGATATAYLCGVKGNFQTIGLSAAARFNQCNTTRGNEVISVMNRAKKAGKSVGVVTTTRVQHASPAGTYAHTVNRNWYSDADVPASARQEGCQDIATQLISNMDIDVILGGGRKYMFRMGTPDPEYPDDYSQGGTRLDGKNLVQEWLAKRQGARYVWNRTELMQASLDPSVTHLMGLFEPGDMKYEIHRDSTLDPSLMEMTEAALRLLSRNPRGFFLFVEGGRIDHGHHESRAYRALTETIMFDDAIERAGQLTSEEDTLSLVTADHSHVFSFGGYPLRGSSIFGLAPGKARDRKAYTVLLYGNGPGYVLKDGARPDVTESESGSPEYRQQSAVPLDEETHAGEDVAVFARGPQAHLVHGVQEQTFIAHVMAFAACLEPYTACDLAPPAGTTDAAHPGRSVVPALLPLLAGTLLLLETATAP
Chain of Cytochrome P450 3A4 (P08684 whole entry): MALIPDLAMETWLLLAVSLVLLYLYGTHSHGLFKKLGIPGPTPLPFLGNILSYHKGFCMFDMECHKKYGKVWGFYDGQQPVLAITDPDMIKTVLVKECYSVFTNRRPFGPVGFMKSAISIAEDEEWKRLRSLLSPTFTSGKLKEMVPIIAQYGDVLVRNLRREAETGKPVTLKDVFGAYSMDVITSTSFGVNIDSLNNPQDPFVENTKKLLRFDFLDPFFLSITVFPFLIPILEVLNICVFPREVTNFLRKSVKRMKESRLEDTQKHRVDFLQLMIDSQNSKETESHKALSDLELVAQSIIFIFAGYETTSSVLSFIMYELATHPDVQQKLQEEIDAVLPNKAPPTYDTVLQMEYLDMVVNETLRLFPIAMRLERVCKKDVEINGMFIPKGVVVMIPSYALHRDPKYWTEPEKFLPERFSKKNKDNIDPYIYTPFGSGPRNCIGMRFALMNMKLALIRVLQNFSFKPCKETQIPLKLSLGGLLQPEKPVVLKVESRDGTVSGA
Chain of E3 ubiquitin-protein ligase Mdm2/Protein Mdm4 (Q00987 whole entry): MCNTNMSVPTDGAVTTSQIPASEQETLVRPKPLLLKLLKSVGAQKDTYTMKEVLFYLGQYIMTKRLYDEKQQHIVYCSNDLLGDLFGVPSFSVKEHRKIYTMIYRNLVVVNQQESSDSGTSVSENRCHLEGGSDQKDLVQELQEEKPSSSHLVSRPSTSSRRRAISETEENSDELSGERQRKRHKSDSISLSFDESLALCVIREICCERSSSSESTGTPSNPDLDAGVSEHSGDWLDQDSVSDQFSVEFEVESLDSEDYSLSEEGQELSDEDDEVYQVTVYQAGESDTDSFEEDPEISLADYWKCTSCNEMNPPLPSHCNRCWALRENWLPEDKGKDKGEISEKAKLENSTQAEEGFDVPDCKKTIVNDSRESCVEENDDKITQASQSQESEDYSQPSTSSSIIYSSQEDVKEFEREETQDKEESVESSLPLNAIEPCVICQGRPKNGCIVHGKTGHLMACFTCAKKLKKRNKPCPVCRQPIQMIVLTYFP
Chain of E3 ubiquitin-protein ligase Mdm2/Protein Mdm4 (O15151 whole entry): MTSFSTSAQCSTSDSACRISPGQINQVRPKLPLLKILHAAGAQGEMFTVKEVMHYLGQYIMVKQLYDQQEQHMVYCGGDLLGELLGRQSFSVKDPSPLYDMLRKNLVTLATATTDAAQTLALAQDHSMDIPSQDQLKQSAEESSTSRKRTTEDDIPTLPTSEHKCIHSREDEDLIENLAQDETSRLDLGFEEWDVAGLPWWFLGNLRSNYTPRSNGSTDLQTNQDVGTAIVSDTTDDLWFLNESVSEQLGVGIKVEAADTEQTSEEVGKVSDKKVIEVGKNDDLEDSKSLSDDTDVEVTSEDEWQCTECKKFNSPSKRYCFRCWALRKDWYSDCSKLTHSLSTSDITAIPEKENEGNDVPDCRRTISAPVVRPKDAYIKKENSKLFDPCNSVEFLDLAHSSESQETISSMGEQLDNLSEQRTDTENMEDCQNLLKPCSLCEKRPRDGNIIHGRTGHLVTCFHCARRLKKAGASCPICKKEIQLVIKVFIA
Chain of Glyceraldehyde-3-phosphate dehydrogenase (P04406 whole entry): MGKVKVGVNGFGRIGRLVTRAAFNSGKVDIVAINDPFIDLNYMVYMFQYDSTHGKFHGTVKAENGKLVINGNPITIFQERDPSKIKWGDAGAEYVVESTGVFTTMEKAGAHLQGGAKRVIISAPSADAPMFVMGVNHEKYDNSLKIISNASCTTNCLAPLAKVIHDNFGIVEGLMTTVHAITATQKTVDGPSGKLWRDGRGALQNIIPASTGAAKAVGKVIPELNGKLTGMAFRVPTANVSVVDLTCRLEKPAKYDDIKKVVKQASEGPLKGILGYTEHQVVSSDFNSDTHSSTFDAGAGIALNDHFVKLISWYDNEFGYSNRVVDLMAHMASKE

COc1ccccc1-c1nc(SCc2ccccc2F)n[nH]1
IC50 [1]: > 100 µM (not active)
IC50 [2]: > 100 µM (inactive)
IC50 [3]: 3.41 µM (active)

O=c1c2ccccc2nc2cc(O)c(-c3ccccc3)nn12
IC50 (cells): 4.34 µM (active)
CC50 [4]: 15.4 µM (active)
CC50 [5]: > 40 µM (active)

N#C/C(=C\c1ccc(-c2ccc([N+](=O)[O-])cc2)o1)C(=O)Nc1nc(-c2cccs2)cs1
IC50 (SUMO-activating enzyme [6]): 18.2 µM (active)
IC50 (SUMO-activating enzyme [7]): 8.52 µM (active)
IC50 [8]: > 66.6 µM (inactive)
IC50 (Beta-galactosidase): > 66.6 µM (inactive)

O=C(COC(=O)c1ccc(O)cc1)Nc1ccc2c(c1)OCCO2
EC50 (Troponin, cardiac muscle): > 71.5 µM (inactive)

CC(C)c1cccc(=O)c(O)c1 [HINOKITIOL]
AC50 (Cytochrome P450 3A4): 0.631 µM (inconclusive)
IC50 [9]: 3.58 µM (active)

CC(C)(C)CCN1CC2CCC(NC(=O)c3ccc(Cl)cc3Cl)C2C1 (centres undefined)
EC50 [10]: 0.36 µM (active)
